Laboratory results reported in EP3889262A1, “INHIBITION OF CASPASE-3 BY THE MICRORNA 126-5P” (Ludwig-Maximilians-Universität München, priority 2020, dated 2021).
Peptide text beside a SMILES is read from it. * marks the point of attachment. Cbz = O=C(OCc1ccccc1)*; CH2F = FC*

Legend:
HUVECs = assay: qPCR of miR-126 strand amounts and nucleo-cytoplasmic distribution in HUVECs; type: cell-based, human; settings: for nuclear miR-126-5p: fractional qPCR, ivermectin with rapamycin, 3-methyladenine with KLF2 overexpression
Experimental: HUVECs were treated with rapamycin (Santa Cruz Biotechnology) at 5 µM, ivermectin (Santa Cruz Biotechnology) at […], 3-methyladenine (Sigma Aldrich) at 5 mM, and/or camptothecin (Abcam) at 500 nM. Unless stated otherwise, treatment was applied for 3 h to analyze early processes and to avoid activation of concomitant or compensatory mechanisms. RNA interference technology was applied to generate specific knockdowns with siRNA against ATG5, ATG7, Mex3a (Qiagen). Functional studies on miRNA function were carried with miScript miRNA mimics and inhibitors of miR-126-5p (Qiagen). Overexpression of KLF2 and Mex3a were obtained by pCMV-hKLF2 and pCMV-hMex3a plasmids. Transfections were performed by electroporation using Amaxa Nucleofector technology (Lonza) or Lipofectamine™ 2000 (ThermoFisher Scientific) according to the manufacturer's protocols.

recombinant caspase-3 = target: T1, recombinant caspase-3 (Homo sapiens, UniProt P42574); assay: Cell-free analysis of caspase-3 activity (substrate cleavage); type: biochemical; settings: substrate cleavage by recombinant caspase-3, cell-free
T1 sequence (P42574 29-175 limits assumed): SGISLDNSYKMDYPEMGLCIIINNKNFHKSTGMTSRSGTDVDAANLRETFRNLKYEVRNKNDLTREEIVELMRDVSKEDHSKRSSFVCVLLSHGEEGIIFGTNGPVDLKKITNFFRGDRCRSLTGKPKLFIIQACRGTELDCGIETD
T1 sequence (P42574 176-277 limits assumed): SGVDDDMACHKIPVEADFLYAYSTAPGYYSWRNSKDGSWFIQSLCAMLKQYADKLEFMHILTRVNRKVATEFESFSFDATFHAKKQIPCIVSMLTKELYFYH

Compound | nuclear miR-126-5p (HUVECs) | other results
CO/C1=C\C(C)=C\[C@@H](C)[C@@H](O)[C@@H](C)C/C(C)=C/C=C/[C@H](OC)[C@@H]([C@@H](C)[C@@H](O)[C@H](C)[C@@]2(O)C[C@@H](O)[C@H](C)[C@@H](C(C)C)O2)OC1=O [bafilomycin] |  | amount of miR-126-3p (HUVECs; ECs): restored
COC(=O)C[C@H](NC(=O)[C@H](C)NC(=O)[C@@H](NC(=O)OCc1ccccc1)C(C)C)C(=O)CF [Z-VAD-FMK] (Cbz-Val-Ala-Asp(OMe)-CH2F) |  | IC50 (recombinant caspase-3): 75.9 µM
ivermectin | prevented | 
Cn1cnc(N)c2ncnc1-2 [3-methyladenine] | blunted | 
